Like-named read-outs stand apart in the source and are kept apart here.
Tests used:
[1] = tested on: porcine epidemic diarrhea virus (PEDV); settings: for SI (=CC50/EC50): CC50 in eGFP-Vero cells / EC50 against mCherry-PEDV
[2] = tested on: porcine epidemic diarrhea virus (PEDV); assay: microbe, parasite or virus in culture; settings: 15 h, read-out: EC50 ± SD

CCC(CC)COC(=O)[C@H](C)N[P@](=O)(OC[C@H]1O[C@@](C#N)(c2ccc3c(N)ncnn23)[C@H](O)[C@@H]1O)Oc1ccccc1 [Remdesivir]
Antiviral effect (mCherry expression and syncytia formation) ([1]; 50 µM, 15 h post-infection): completely inhibited | SI (=CC50/EC50) [1]: >37 | SI (=CC50/EC50) ([1]; listed as remdesivir): > 37 | EC50 [2]: 2710 ± 700 nM

Reference: paper PMC8813674 (Computational and Structural Biotechnology Journal, 2022)
